Target: Fibroblast growth factor receptor 4 (Homo sapiens, UniProt P22455)
Assay: The reaction was stopped by the addition of 70 ul of Stop buffer (100 mM HEPES pH 7.5, 0.015% Brij 35, 35 mM EDTA and 0.2% of Coating Reagent 3 (Caliper Lifesciences)). The plate was then read on a Caliper LabChip EZ Reader II (protocol settings: −1.9 psi, upstream voltage −700, downstream Voltage -3000, post sample sip 35S).
Format: biochemical

Sequence of Fibroblast growth factor receptor 4 (P22455 whole entry): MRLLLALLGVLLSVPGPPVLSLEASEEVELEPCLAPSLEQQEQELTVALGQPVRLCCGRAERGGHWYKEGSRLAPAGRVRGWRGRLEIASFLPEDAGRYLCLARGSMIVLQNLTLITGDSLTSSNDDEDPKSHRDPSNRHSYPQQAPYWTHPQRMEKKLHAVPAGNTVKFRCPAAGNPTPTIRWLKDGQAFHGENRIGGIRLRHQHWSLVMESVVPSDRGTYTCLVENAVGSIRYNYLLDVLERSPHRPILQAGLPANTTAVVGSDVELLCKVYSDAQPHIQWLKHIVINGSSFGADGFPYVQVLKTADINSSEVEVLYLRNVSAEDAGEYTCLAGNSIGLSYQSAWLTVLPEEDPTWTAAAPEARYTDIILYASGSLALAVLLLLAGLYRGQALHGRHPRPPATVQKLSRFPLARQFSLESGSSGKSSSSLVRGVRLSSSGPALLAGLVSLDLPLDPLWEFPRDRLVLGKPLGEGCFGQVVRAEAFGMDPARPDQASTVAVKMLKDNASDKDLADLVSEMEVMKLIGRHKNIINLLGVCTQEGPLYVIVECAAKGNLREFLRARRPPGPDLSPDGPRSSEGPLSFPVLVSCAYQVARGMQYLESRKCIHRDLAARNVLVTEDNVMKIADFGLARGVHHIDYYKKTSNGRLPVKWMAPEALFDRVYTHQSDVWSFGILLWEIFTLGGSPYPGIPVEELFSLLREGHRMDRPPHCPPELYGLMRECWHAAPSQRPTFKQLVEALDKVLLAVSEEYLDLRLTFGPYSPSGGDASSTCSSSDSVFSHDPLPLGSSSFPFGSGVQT

IC50 [nM]	Structure (SMILES)
> 1000	C=CC(=O)Nc1ccccc1-c1ncc2cc(-c3c(Cl)c(OC)cc(OC)c3Cl)cc(OC)c2n1
< 10	C=CC(=O)N1CC(C)(C)Oc2ccc(-c3cc4c(cn3)cc(-c3c(Cl)c(OC)cc(OC)c3Cl)c(=O)n4CC)cc21
< 10	C=CC(=O)N1CCc2ccc(-c3ncc4cc(-c5c(Cl)c(OC)cc(OC)c5Cl)c(=O)n(CC)c4n3)cc21

More lines, now with the values behind:

Structure (SMILES)	IC50 [nM]
C=CC(=O)Nc1ccccc1-c1cc2c(cn1)cc(-c1c(Cl)c(OC)cc(OC)c1Cl)c(=O)n2C1CCCC1	< 10
C=CC(=O)Nc1cccc(-c2cc3c(cn2)cc(-c2c(Cl)c(OC)cc(OC)c2Cl)c(=O)n3C2CCCC2)c1	< 10
